Series [1] relates to U373 cells. The experiment in a line: in vivo inhibition of tumour growth, U373 xenograft in athymic nude mice. How it is done:
All experimental procedures adhered to local ethical committee (Comité régional d'éthique pour l'Expérimentation animale CREEA, Rhône Alpes—protocol n°286). Female Harlan athymic nude mice (6-8 weeks) were inoculated s.c. into the right flank with 7.5×10^5 U373 cells. When tumors reaches±50 mm^3 (volume=length×width×height), animals were treated i.p. 3 times weekly (every two days) for 2 weeks, with Compound 1 (0.14 mg/100 μL/injection-4 mice) dissolved in PEG3350 22.5%, BSA 0.45% or equivalent DMSO (10% final-3 mice) dissolved in same buffer (control group). Body weight and tumor volume were determined twice weekly. The experiment was terminated when tumor volume was about 1000 mm^3. Results are presented as mean±standard error of the mean (SEM).

In series [2] the test system is double stranded oligonucleotide CAATCGGATCGAATTCGATCCGATTG
The series can be described thus: DNA intercalation by FID (Fluorescence Intercalator Displacement, thiazole orange). To be noted: 10 μM compound. It counts as binding. How it is done: (§1) 1. Materials and Methods • Effect of compounds of formula (I) on CK2 activity is measured according to Prudent et al. (Prudent, R. et al. (2008) Mol Cell Biochem 316(1-2): 71-85): compounds were tested in a radioactive assay performed in a final volume of 18 μL containing 3 μL of compounds at the indicated concentrations, 3 μL, of CK2α (36 ng) and a mixture containing 100 μM of peptide substrate ([…], SEQ ID No: 1), 10 mM MgCl2, and 100 μM [γ-^32P]-ATP. Assays were performed at room temperature for 5 min before termination by the addition of 60 μL of 4% TCA. ^32P incorporation into the peptide substrate was determined as previously described in Filhol et al. (Biochemistry 29: 9928-36, 1990). • Effect of compounds of formula (I) on c-kit activity is measured according to the manufacturer's recommendations (Millipore, reference 14-559): in a final reaction volume of 25 μL, c-Kit (5-10 mU) is incubated with 8 mM MOPS pH 7.0, 0.2 mM EDTA, 10 mM MnCl2, 25 μM ATP, 0.1 mg/mL poly(Glu, Tyr) 4:1, 10 mM MgAcetate and [γ-33P-ATP] […] Following an incubation of 30 minutes at 37° C., reaction mixture is resolved on an agarose gel (1% agarose) and DNA topoisomers are quantified by densitometric analysis. • Effect of compounds of formula (I) on DNA intercalation. DNA intercalation was performed using FID (Fluorescence Intercalator Displacement). […] In this assay, compound auto-fluorescence was negative.

For another series, the target named is T1, c-Kit (Homo sapiens, UniProt P10721).
T1 construct: purchased Millipore 14-559
The experiment in a line: c-kit kinase activity assay (Millipore 14-559). Format: biochemical. Particulars: 10 μM compound. How it is done: as §1

A further series concerns the target CK2α (Homo sapiens, UniProt P68400). The series can be described thus: CK2 radioactive kinase assay (32P incorporation into peptide substrate). Format: biochemical. Particulars: 100 μM ATP; for % remaining CK2 activity (10 μM): 10 μM compound. On the procedure: 1. Materials and Methods • Effect of compounds of formula (I) on CK2 activity is measured according to Prudent et al. (Prudent, R. et al. (2008) Mol Cell Biochem 316(1-2): 71-85): compounds were tested in a radioactive assay performed in a final volume of 18 μL containing 3 μL of compounds at the indicated concentrations, 3 μL, of CK2α (36 ng) and a mixture containing 100 μM of peptide substrate ([…], SEQ ID No: 1), 10 mM MgCl2, and 100 μM [γ-^32P]-ATP. Assays were performed at room temperature for 5 min before termination by the addition of 60 μL of 4% TCA. ^32P incorporation into the peptide substrate was determined as previously described in Filhol et al. (Biochemistry 29: 9928-36, 1990). • Effect of compounds of formula (I) on c-kit activity is measured according to the manufacturer's recommendations (Millipore, reference 14-559): in a final reaction volume of 25 μL, c-Kit (5-10 mU) is incubated with 8 mM MOPS pH 7.0, 0.2 mM EDTA, 10 mM MnCl2, 25 μM ATP, 0.1 mg/mL poly(Glu, Tyr) 4:1, 10 mM MgAcetate and [γ-33P-ATP] (specific activity approx. 500 cpm/pmol, concentration as required). The reaction is initiated by the addition of the MgATP mix. After incubation for 40 minutes at room temperature, the reaction is stopped by the addition of 5 μL of a 3% phosphoric acid solution. 10 μL of the reaction is then spotted onto a Filtermat A and washed three times for 5 minutes in 75 mM phosphoric acid and once in methanol prior to drying and scintillation counting. • Effect of compounds of formula (I) on topoisomerase II activity is measured according to the manufacturer's recommendations (Vaxron, TA-001): in a final reaction volume of 10 μL, 1U topoisomerase IIα is incubated with 0.1M Tris-HCl, pH 8.0, 2 mM DTT, 20 mM MgCl2, 4 mM ATP, 0.2 M NaCl, 2 μg BSA, 500 ng Kinetoplast DNA and compounds to be assayed (from 10 mM stock solution in DMSO, final concentration of DMSO<1%). The reaction is initiated by the addition of topoisomerase IIα. After incubation for 15 min at 37° C., reaction is stopped by addition of 1 μL of stop solution (3% SDS, 1.5 mg·mL^−1 Proteinase K). Following an incubation of 30 minutes at 37° C., reaction mixture is resolved on an agarose gel (1% agarose) and DNA topoisomers are quantified by densitometric analysis. • Effect of compounds of formula (I) on DNA intercalation. DNA intercalation was performed using FID (Fluorescence Intercalator Displacement). This assay based on the loss of fluorescence of a DNA-bound intercalator (thiazole orange) upon displacement by a DNA-binding molecule. Briefly, the double stranded oligonucleotide […] […] After 20 minutes incubation, fluorescence is measured (excitation: 490 nm, emission: 520 nm). In this assay, compound auto-fluorescence was negative.

In the next series the target is T2, topoisomerase IIα (Homo sapiens, UniProt P11388).
T2 construct: purchased Vaxron TA-001
The experiment in a line: topoisomerase II activity assay (kinetoplast DNA, Vaxron TA-001). It counts as biochemical. Particulars: 10 μM compound. How it is done:
as §1

The test system of a further series is CK2. The experiment in a line: cellular CK2 activity assay (YFP-based CK2 activity reporter in HeLa cells). Format: cell-based, human. Particulars: 24 hours incubation, FIGS. 2A and 2B. How it is done: Cellular CK2 activity assay: The plasmid pEYFPc1 expressing a chimeric YFP-based CK2 activity reporter was designed by adding six CK2 consensus phosphorylation sites at the C terminus of the YFP protein (pEYFPc1-SβS). pEYFPc1-SβS was obtained from pEYFPc1-CK2β after two subsequent rounds of mutations with the Quickchange-Site Directed mutagenesis kit (Stratagene) using for mutagenesis 1:
Then, the cells were collected and the washed pellets were solubilized for […] in ice with 100μΛ of lysis buffer (Tris 50 mM pH=7.4, 0.15 M NaCl, EDTA 2 mM, Triton X100 1/100, phosphatase inhibitor cocktail 2 (Sigma) 1/100, and leupeptine, aprotinine, AEBSF according to the manufacturer recommendations).

Series [3] has as its system U373 cells. The series can be described thus: cell cycle distribution analysis (propidium iodide), U373. It counts as cell-based, human. To be noted: 5 μM, 24 hours. How it is done:
(§2) Cells previously treated with Compound 1 and Compound 2 in example 4 are then submitted to a cell cycle analysis following propidium iodide incorportation.
(§3) Cell cycle distribution analysis: cells were plated in 6-well plates. The following day, cells were treated with 5 μM compounds or an equivalent amount of DMSO. After 24 hours, cells were harvested, fixed with ethanol 70% for 30 minutes, and labeled with propidium iodide 10 μg/mL for 30 min. DNA content was analysed with FACScalibur and Cell Quest software.

Series [4] has as its system HeLa cells. The series can be described thus: inhibition of HeLa cell proliferation (CellTiter-Glo viability). It counts as cell-based, human. To be noted: 48 hours treatment, FIG. 3. How it is done:
(§4) 1. […] The following day, the culture medium was replaced with fresh medium (Dulbecco's medium, Invitrogen Life Technologies, Inc., supplemented with 10% (v/v) fetal calf serum (FBS, BioWest)), containing increasing concentration of inhibitors or an equivalent amount of DMSO as control. Two days later, cell viability was measured with the CellTiter-Glo® Luminescent Cell Viability Assay (Promega) according to the manufacturer recommendations. • The inhibition of U373 cells proliferation is assessed with the same protocol that HeLa cells: one day after plating, U373 cells are treated with 5 μM of Compound 1, Compound 2 or DMSO. Results are given relative to the luminescence recorded for DMSO.
(In general: Cellular ATP, detected with luciferase, serves as a proxy for viable cell number.)

Series [5] has as its system U373 cells. The series can be described thus: colony formation assay by soft agar culture. It counts as cell-based. To be noted: Homo sapiens, U373 MG, 360 h, 15 days. How it is done:
The effect of compound on tumor cell tumorigenesis is tested on a colony formation assay.
The inhibition of colony formation assay by soft agar culture is performed as follows: U373 cells were poured on a 0.6% agar-DMEM-10% FBS layer, imbedded in 0.3% agar-DMEM-10% FBS, containing compounds (5 μM) or equivalent amount of DMSO. Number of colonies (more than 20 cells) was counted 15 days later in 10 fields/well. Experiment was done in duplicate at least twice.

In series [6] the test system is HeLa cells. The experiment in a line: cell cycle distribution analysis (propidium iodide), HeLa. It counts as cell-based, human. To be noted: 5 μM, 24 hours. How it is done: as §2, §3
The subject of series [7] is U373 cells. The series can be described thus: inhibition of U373 cell proliferation (CellTiter-Glo viability). Format: cell-based, human. Particulars: 5 μM, 48 hours treatment, FIG. 4. How it is done:
as §4

As a reminder, the IC50 is the concentration needed to halve the response being measured. A word on the inhibition: it is the share of the control response that was lost under treatment. A low value points to a weak effect.

SMILES strings stand for the structures.

Sequence of CK2α (P68400 whole entry): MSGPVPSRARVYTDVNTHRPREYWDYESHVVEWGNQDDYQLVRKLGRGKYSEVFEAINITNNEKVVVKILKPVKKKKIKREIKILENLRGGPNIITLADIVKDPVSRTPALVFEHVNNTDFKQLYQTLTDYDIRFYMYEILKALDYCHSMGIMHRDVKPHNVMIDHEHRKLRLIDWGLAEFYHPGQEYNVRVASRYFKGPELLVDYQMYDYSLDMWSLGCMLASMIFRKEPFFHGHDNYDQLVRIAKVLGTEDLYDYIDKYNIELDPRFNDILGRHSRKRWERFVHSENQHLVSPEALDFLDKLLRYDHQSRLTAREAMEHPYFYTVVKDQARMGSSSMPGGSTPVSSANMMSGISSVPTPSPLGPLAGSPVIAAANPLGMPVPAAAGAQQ
T1 sequence (P10721 26-976): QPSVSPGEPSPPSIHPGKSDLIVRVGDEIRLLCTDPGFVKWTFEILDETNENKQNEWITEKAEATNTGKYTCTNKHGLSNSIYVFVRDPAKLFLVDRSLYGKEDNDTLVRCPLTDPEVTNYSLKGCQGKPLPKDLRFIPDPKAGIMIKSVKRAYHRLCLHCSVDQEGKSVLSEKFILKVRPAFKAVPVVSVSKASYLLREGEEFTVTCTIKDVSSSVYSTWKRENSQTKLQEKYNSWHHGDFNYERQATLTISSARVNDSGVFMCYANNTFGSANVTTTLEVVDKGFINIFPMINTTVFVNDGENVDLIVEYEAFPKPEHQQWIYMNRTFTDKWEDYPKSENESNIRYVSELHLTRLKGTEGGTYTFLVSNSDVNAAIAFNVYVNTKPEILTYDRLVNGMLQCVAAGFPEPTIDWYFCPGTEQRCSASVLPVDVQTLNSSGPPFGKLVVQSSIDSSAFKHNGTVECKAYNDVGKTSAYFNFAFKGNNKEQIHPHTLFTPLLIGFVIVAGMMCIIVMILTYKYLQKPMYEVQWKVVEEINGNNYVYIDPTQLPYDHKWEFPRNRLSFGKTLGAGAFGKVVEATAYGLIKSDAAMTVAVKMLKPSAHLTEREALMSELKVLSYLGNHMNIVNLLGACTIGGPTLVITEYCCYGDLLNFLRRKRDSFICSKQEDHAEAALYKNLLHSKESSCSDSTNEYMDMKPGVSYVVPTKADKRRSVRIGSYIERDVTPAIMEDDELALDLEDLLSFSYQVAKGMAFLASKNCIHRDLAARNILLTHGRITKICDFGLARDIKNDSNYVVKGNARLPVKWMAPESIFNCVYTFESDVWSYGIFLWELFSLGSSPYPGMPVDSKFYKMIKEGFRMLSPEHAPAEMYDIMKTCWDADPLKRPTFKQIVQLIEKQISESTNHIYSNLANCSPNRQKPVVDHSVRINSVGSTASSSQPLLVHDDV
T2 sequence (P11388 whole entry): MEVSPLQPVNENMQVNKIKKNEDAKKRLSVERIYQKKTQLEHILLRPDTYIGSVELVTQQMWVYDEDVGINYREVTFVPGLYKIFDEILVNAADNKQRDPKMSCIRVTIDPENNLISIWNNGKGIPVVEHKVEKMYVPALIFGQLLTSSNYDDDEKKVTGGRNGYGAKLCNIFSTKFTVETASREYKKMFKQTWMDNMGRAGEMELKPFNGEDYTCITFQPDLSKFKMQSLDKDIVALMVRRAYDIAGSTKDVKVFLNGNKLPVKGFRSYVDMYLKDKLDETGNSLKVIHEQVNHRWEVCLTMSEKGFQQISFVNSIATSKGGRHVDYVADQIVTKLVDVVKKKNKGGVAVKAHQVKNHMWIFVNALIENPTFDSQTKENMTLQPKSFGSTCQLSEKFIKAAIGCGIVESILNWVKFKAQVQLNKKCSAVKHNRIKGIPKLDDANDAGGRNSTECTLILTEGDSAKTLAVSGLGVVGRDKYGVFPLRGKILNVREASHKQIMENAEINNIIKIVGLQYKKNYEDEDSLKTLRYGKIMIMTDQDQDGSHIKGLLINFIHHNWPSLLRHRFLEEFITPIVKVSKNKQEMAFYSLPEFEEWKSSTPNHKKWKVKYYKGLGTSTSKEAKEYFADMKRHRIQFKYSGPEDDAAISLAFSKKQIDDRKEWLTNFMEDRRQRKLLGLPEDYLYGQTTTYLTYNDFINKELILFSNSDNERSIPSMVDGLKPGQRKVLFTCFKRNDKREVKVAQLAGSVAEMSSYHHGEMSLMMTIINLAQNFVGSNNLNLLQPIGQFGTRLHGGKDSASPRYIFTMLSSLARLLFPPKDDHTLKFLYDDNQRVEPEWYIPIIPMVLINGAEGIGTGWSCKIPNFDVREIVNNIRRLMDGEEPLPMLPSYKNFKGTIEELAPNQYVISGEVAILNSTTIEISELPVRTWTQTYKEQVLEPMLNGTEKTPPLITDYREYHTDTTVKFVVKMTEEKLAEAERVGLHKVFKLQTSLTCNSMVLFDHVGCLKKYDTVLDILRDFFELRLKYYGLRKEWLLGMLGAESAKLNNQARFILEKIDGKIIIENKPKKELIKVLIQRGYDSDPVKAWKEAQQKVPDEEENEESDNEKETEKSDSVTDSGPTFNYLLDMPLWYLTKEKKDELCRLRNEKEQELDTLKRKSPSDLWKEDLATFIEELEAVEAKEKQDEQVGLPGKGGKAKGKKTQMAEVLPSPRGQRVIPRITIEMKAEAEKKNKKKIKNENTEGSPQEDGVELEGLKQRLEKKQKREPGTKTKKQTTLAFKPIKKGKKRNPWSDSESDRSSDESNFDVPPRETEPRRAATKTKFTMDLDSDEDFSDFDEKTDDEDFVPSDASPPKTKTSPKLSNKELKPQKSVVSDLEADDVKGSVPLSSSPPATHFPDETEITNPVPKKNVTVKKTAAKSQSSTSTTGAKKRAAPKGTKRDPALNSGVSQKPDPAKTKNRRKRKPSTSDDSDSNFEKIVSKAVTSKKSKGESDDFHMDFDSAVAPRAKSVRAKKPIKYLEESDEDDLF

Consider `Cc1cnc(Cl)c2c1[nH]c1c3ccc(O)cc3ccc12` [Compound 1], for which, in the series with U373 cells [1] (15 days post first compound injection, i.p. 0.14 mg/injection), the “tumor size, times smaller than DMSO group” value turned out to be 4.7 times. The tolerability entry in the series with U373 cells [1] (at the doses applied) was “well tolerated”. In addition, the “variations in body weight” value with U373 cells [1] (i.p. 0.14 mg/injection, 3 times weekly for 2 weeks) is “not statistically significant”. Moreover, the “tumor incidence compared to DMSO” value in the series with U373 cells [1] (i.p. 0.14 mg/injection, 3 times weekly for 2 weeks, all time points) is on record as “significantly reduced”. The “% DNA intercalation (10 μM)” value in series [2] is recorded as 62.0%. Further, the “% remaining c-kit activity (10 μM)” value at c-Kit is on record as 60.4%. For the same molecule, at CK2α, the “% remaining CK2 activity (10 μM)” value is given as 1.4% and the concentration for half-maximal inhibition (IC50) came out at 1500 nM. Also, on topoisomerase IIα, the “% remaining topoisomerase II activity (10 μM)” value was 106.8%. The “phosphorylated CK2 reporter isoform” value in the series on CK2 was “disappeared in a dose-dependent manner”. Further, the cell cycle effect result in the series on U373 cells [3] is “cell cycle arrest with a substantial accumulation in G2/M-phase”. Besides, in the series with HeLa cells [4], the “inhibition of HeLa cell proliferation” value is “strong inhibition of tumour cell proliferation even at low doses”. In addition, at 5 µM the inhibition with U373 cells [5] was 50%. Also, in the series on HeLa cells [6], the apoptotic cells entry is “concomitant increase of apoptotic cells” and the cell cycle effect entry is on record as “cell cycle arrest with a substantial accumulation in G2/M-phase”. For the same molecule, the “reduction of U373 cell proliferation” value in the series on U373 cells [7] is given as “potent to reduce cell proliferation”.
On to `Cc1cnc(Cl)c2c1[nH]c1ccc3cc(O)ccc3c12` [Compound 2], for which the “% DNA intercalation (10 μM)” value in series [2] was determined as 66.4%. Further, the “% remaining c-kit activity (10 μM)” value on c-Kit is listed as 16.9%. At CK2α, the “% remaining CK2 activity (10 μM)” value worked out at 3.5% and the concentration for half-maximal inhibition (IC50) is 670 nM. Moreover, the “% remaining topoisomerase II activity (10 μM)” value at topoisomerase IIα amounted to 77%. For the same molecule, in the series with CK2, the “phosphorylated CK2 reporter isoform” value is reported as “disappeared in a dose-dependent manner”. The cell cycle effect entry in the series on U373 cells [3] is on record as “cell cycle arrest with a substantial accumulation in G2/M-phase”. The “inhibition of HeLa cell proliferation” value in the series with HeLa cells [4] was “strong inhibition of tumour cell proliferation even at low doses”. In the series with HeLa cells [6], the apoptotic cells result is “concomitant increase of apoptotic cells” and the cell cycle effect result was “cell cycle arrest with a substantial accumulation in G2/M-phase”. In addition, the “reduction of U373 cell proliferation” value in the series with U373 cells [7] is “potent to reduce cell proliferation”.

Source of the values: patent US8686144B2, “Condensed pyridine derivatives useful as potent inhibitors of the protein kinase CK2” (Commissariat a l'Energie Atomique et aux Energie Alternative, priority 2009, dated 2014).
